According to ChEMBL document CHEMBL1201862, “PubChem BioAssay data set” (2004):
Calls of active or inactive are those of the source. Rule as the data show it, for most assays here: actives have a measured EC50 and inactives only a lower limit.

Key:
Fatty acid synthase [1] = biological target: T1, Fatty acid synthase (Homo sapiens, UniProt P49327); assay: FAS thioesterase domain inhibitors, dose response, biochemical, endpoint fluorescence intensity, uHTS hits (AID 624327); assay type: functional;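 also: fluorescence from hydrolysis of an O-methyl fluorescein acyl ester substrate by the enzyme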
Fatty acid synthase [2] = biological target: T1, Fatty acid synthase; assay: FAS thioesterase domain inhibitors, dose response, biochemical, kinetic fluorescence intensity (AID 624326); assay type: functional;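 also: rate of fluorescence rise from hydrolysis of a fluorogenic O-methyl fluorescein ester substrate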
[3] = Luminescence Cell-Based Dose Confirmation HTS to Identify Activators of 5'UTR Stem-Loop Driven Alpha-Synuclein mRNA Translation in H4 Neuroglioblastoma Cells. [Related pubchem assays: 1829 (Project Summary), 1814 (Primary HTS)]; assay type: functional
[4] = Luminescence Cell-Based Dose Response HTS to Identify Activators of Luciferase Translation or Activity in H4 […] Cells. [Related pubchem assays: 1829 (Project Summary), 1814 (Primary HTS)]; assay type: functional
H4 = assay: Luminescence Cell-Based Dose Response HTS to Identify Activators of 5'UTR Stem-Loop Driven Prion Protein mRNA Translation in H4 Neuroglioblastoma Cells. [Related pubchem assays: 1829 (Project Summary), 1814 (Primary HTS)]; assay type: functional; details: Homo sapiens
[5] = NIH-3T3 fibroblast cytotoxicity, dose response, cytotoxicity control, cell-based, fluorescence, Alamar Blue, secondary assay (AID 2327); assay type: functional;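 also: NIH-3T3 mouse fibroblasts cultured with fluconazole at 8 µg/mL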
[6] = C. albicans growth with fluconazole, confirmation, fluorescence, retest (AID 2467); assay type: functional, cell-based
[7] = inhibitors of intracellular T. cruzi replication, confirmation, NIH3T3 host cells, beta-gal luminescence (AID 2044); assay type: functional, cell-based;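 also: intracellular parasites grown in NIH/3T3 mouse fibroblasts as host cells; luminescent beta-galactosidase reporter signal from transgenic T. cruzi replicating inside host cells; inhibitors lower the luminescence signal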
[8] = cytotoxicity toward NIH3T3 fibroblasts, dose response, counter-screen, cell-based, ATP luminescence, mouse fibroblasts (AID 2010); assay type: functional;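 also: cells exposed to compound for about 90 hours before reading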
[9] = HEp-2 cell cytotoxicity, dose response, cytotoxicity control for RSV inhibitor project, HTS (AID 2410); assay type: functional; details: human respiratory syncytial virus
[10] = system: Streptococcus sp. 'group A'; assay: growth inhibition of control SK(-) GAS strain, dose response, counter-screen for streptokinase expression inhibitor project, luminescence, kanamycin, BacTiterGlo, confirmation (AID 1900); assay type: functional, organism-based
Streptokinase A = biological target: T2, Streptokinase A (Streptococcus pyogenes serotype M1, UniProt P10520); assay: S. pyogenes streptokinase expression inhibitors, potency, dose response, plasminogen activation absorbance, OD405 (AID 1914); assay type: functional, Streptococcus pyogenes M1 GAS;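 also: secreted streptokinase activity via plasminogen activation per viability signal from cell pellet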
T2 sequence (P10520 whole entry): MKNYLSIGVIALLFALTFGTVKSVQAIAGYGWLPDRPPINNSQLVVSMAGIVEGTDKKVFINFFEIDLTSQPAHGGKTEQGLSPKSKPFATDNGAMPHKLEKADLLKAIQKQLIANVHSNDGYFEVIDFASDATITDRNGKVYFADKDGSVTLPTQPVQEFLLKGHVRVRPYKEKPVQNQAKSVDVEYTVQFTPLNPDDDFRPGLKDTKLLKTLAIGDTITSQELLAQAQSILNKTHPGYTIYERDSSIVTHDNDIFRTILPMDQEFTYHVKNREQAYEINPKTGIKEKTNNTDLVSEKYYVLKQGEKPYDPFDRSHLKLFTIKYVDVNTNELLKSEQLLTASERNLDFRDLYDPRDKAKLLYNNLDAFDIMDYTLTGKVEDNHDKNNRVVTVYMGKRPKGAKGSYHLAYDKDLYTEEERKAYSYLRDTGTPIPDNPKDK

Streptococcus = assay: Group A Streptococcus viability loss, dose response, counter-screen for streptokinase expression inhibitor project, luminescence, BacTiterGlo (AID 1915); assay type: functional, organism-based;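 also: potency for reduction of bacterial viability or growth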
[11] = biological target: T3, Corticotropin-releasing factor receptor 2/Corticotropin-releasing factor-binding protein (Homo sapiens, UniProt P24387+Q13324); assay: Dose Response confirmation of uHTS hits for small molecule antagonists of the CRF-binding protein and CRF-R2 receptor complex.; assay type: functional; details: read-out: IC50_Mean
T3 sequence (Q13324 whole entry): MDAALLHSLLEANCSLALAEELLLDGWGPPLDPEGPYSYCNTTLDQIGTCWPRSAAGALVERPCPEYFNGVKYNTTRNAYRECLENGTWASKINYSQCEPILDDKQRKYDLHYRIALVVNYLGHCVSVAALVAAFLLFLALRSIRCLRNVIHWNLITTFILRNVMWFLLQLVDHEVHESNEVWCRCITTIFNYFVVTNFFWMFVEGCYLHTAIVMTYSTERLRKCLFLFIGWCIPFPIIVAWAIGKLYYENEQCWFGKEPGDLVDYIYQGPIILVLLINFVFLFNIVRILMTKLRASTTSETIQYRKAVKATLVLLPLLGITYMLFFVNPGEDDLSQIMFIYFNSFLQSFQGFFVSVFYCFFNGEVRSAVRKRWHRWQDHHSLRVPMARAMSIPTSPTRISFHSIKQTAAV
T3 sequence (P24387 whole entry): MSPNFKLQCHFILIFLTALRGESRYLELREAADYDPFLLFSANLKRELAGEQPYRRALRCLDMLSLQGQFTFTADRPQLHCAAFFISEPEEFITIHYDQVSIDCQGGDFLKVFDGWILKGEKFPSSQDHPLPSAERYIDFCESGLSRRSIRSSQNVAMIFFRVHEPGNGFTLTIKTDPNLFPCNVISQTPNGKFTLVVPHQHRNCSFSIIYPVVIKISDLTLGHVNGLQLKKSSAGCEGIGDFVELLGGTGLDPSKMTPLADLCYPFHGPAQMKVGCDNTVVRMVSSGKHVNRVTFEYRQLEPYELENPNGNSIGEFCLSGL

[12] = biological target: T3, Corticotropin-releasing factor receptor 2/Corticotropin-releasing factor-binding protein; assay: activators of CRF receptor 2 with binding protein – uHTS hits, confirmation (AID 602473); assay type: functional; details: read-out: EC50_Mean

T1 sequence (P49327 whole entry, the tested form may be a part): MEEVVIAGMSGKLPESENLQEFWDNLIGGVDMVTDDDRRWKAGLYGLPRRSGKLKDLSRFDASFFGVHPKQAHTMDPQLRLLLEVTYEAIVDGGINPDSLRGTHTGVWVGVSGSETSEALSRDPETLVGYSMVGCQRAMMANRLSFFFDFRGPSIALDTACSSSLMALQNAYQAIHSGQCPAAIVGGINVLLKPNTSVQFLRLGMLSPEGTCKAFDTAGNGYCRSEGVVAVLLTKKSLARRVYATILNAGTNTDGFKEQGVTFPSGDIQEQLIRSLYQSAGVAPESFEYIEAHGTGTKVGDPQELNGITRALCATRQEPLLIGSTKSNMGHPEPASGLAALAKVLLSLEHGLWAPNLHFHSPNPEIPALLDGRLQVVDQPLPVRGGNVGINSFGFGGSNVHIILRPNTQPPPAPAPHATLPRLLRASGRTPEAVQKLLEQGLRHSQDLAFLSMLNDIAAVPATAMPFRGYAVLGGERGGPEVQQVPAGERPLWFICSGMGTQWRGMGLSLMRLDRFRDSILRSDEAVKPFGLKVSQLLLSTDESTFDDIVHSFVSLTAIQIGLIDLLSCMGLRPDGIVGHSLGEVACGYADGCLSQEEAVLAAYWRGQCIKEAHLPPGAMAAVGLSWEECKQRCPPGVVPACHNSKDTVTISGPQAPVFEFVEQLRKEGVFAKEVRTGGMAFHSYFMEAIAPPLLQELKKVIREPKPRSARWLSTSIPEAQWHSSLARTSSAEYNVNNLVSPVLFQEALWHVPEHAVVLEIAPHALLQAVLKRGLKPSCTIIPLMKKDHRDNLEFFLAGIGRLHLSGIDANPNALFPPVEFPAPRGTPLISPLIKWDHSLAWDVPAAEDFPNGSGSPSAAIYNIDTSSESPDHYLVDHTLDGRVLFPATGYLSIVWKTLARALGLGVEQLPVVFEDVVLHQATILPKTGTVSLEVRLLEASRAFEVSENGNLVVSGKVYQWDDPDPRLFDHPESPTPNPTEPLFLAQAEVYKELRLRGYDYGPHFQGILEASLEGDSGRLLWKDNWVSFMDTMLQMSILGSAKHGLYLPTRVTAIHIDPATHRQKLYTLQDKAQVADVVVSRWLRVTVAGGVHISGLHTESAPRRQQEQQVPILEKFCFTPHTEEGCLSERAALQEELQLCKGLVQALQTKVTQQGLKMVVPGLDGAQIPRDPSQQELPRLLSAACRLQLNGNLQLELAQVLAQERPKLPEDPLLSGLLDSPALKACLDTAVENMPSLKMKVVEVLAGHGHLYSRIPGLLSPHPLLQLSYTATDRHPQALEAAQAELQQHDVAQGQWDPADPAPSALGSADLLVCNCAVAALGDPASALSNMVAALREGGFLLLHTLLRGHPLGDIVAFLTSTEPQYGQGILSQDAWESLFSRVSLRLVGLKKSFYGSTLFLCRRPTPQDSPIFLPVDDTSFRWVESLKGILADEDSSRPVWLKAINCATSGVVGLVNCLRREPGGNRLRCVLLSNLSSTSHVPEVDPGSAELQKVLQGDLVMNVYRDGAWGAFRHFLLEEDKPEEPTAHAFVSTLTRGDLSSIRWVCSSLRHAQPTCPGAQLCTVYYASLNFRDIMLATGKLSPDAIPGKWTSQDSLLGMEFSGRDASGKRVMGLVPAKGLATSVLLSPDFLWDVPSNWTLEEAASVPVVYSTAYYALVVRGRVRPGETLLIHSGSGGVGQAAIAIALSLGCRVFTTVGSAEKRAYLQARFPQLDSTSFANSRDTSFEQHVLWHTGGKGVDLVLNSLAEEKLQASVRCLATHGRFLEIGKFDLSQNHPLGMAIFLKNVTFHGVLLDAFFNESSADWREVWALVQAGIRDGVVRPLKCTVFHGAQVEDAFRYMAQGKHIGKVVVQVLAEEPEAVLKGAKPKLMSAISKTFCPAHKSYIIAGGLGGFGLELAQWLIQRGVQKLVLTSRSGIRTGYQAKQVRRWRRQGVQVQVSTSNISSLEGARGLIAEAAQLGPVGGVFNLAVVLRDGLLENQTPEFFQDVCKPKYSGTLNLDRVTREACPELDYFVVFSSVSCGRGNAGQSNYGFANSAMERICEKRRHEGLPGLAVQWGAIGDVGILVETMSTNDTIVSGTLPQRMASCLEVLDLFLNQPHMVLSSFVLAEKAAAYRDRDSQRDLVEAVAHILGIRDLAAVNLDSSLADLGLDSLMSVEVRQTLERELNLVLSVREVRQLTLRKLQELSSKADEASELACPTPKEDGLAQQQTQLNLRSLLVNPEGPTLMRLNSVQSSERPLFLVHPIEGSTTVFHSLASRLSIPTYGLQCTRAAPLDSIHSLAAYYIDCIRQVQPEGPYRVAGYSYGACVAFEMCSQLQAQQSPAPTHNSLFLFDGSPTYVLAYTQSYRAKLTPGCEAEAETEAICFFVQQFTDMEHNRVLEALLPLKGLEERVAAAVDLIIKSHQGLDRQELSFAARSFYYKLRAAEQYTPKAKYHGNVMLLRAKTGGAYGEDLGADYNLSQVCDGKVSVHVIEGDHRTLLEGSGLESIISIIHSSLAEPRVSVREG

**Q.** For `CC1CCc2c(C(=O)Oc3cccc(-n4cnnn4)c3)csc2C1` (centres undefined), which IC50 (Fatty acid synthase [1]) is on record?
**A.** The IC50 was 1.71 µM (active).

**Q.** What about the IC50 (Fatty acid synthase [2]) of the same compound?
**A.** The IC50 was 1.36 µM (active).

**Q.** Which IC50 (Fatty acid synthase [1]) does the source give for `CC(C)(C)N1C(=O)[C@H]2[C@@H](c3ccc(Br)cc3)N3C(=O)N(c4cccc(F)c4)C(=O)[C@@]3(Cc3ccccc3)[C@H]2C1=O` here?
**A.** The IC50 was 19.8 µM (active).

**Q.** And the IC50 (Fatty acid synthase [2])?
**A.** The IC50 was 10.8 µM (active).

**Q.** With `CCN1CCN(C(CNC(=O)c2ccc3c(c2)OCO3)c2cccnc2)CC1` (centres undefined) as the compound, how does the EC50 [3] read?
**A.** The EC50 was > 120 µM (not active).

**Q.** And the EC50 [4]?
**A.** Its EC50 is 11.5 µM (active).

**Q.** And the EC50 (H4)?
**A.** The EC50 was 15.6 µM (active).

**Q.** Which results are given for `COc1cccc2c1Oc1ncccc1N(C(=O)CCC(=O)NCc1ccccc1F)C2`?
**A.** EC50 [5]: 19.4 µM (inconclusive); EC50 [6]: > 38 µM (not active)

**Q.** With `CSc1nsc(SCC(=O)Nc2ccc(C(C)=O)cc2)n1` as the compound, how does the EC50 [3] read?
**A.** Its EC50 is 4.49 µM (active).

**Q.** What about the EC50 [4] of the same compound?
**A.** Its EC50 is 23.5 µM (active).

**Q.** What about the EC50 (H4) of the same compound?
**A.** The EC50 was 6.18 µM (active).

**Q.** For `O=[N+]([O-])c1ccc(Cl)c(S(=O)(=O)Nc2ccc(-c3ccc(N4CCCC4)nn3)cc2)c1`, which IC50 (Fatty acid synthase [1]) is on record?
**A.** The IC50 was 8.93 µM (active).

**Q.** What about the IC50 (Fatty acid synthase [2]) of the same compound?
**A.** Its IC50 is 11.3 µM (active).

**Q.** What does the source list for `CC(C)(C)C1CCC(OC(=O)CN2CCOCC2)CC1` (centres undefined)?
**A.** EC50 [3]: 13.5 µM (active); EC50 [4]: 8.04 µM (active); EC50 (H4): 19.6 µM (active)

**Q.** Which results are given for `CCOC(=O)C1CCN(C(=O)CN2C(=O)COc3ccc(C(C)(C)C)cc32)CC1`?
**A.** EC50 [3]: > 120 µM (not active); EC50 [4]: > 120 µM (not active); EC50 (H4): > 120 µM (not active)

**Q.** With `CCO[C@@H]1OC(C(=O)NCc2nc3ccccc3[nH]2)=C[C@H](C2CC2)[C@H]1CCCO` as the compound, how does the EC50 [3] read?
**A.** The EC50 was > 120 µM (not active).

**Q.** What about the EC50 [4] of the same compound?
**A.** The EC50 was > 120 µM (not active).

**Q.** What about the EC50 (H4) of the same compound?
**A.** Its EC50 is > 120 µM (not active).

**Q.** With `O=S(=O)(Nc1nc(-c2ccccc2)cs1)c1cc(Cl)ccc1Cl` as the compound, how does the EC50 [5] read?
**A.** The EC50 was > 160 µM (inactive).

**Q.** And the EC50 [6]?
**A.** The EC50 was 1.8 µM (active).

**Q.** With `COc1ccc(N2C(S)=NC3N2C(S)=NC3(C)c2ccccc2)cc1` (centres undefined) as the compound, how does the EC50 [3] read?
**A.** Its EC50 is 18.1 µM (active).

**Q.** What about the EC50 [4] of the same compound?
**A.** Its EC50 is 35 µM (active).

**Q.** What about the EC50 (H4) of the same compound?
**A.** Its EC50 is 53.5 µM (active).

**Q.** For `CCCOc1ccc(NC(=O)CC2C(=O)N(CC)C(=S)N2Cc2cccs2)cc1` (centres undefined), which IC50 (Fatty acid synthase [1]) is on record?
**A.** Its IC50 is 12.4 µM (active).

**Q.** And the IC50 (Fatty acid synthase [2])?
**A.** Its IC50 is 10.9 µM (active).

**Q.** Which results are given for `Nc1ccccc1-[n+]1c(-c2ccccc2)cc(-c2ccccc2)cc1-c1ccccc1.[O-][Cl+3]([O-])([O-])[O-]`?
**A.** EC50 [5]: > 150 µM (inactive); EC50 [6]: 0.843 µM (active); EC50 [7]: 114 nM (active); EC50 [8]: > 60 µM (not active)

**Q.** For `Cc1cccc(N(C)C(=O)c2cc3cc4ccc(C)cc4nc3o2)c1`, which EC50 [4] is on record?
**A.** Its EC50 is 1.69 µM (active).

**Q.** And the EC50 (H4)?
**A.** The EC50 was 14.3 µM (active).

**Q.** What does the source list for `N#CC1=C2SC=C(c3ccc(Br)cc3)N2CCCC1=O`?
**A.** EC50 [4]: 0.864 µM (active); EC50 (H4): 16.9 µM (active)

**Q.** For `Cc1ccc(-c2nn(-c3ccccc3)cc2/C=N/O)cc1`, which CC50 [9] is on record?
**A.** The CC50 was 27.9 µM (active).

**Q.** And the EC50 [10]?
**A.** The EC50 was > 150 µM (not active).

**Q.** What about the EC50 (Streptokinase A) of the same compound?
**A.** The EC50 was > 150 µM (not active).

**Q.** What about the EC50 (Streptococcus) of the same compound?
**A.** The EC50 was > 150 µM (not active).

**Q.** With `C/C(=N\NC(=O)COc1ccc(C)cc1C(C)C)c1ccc(-n2ccnc2)cc1` as the compound, how does the CC50 [9] read?
**A.** Its CC50 is 24.3 µM (active).

**Q.** With `O=C(CN1CCC(n2nnc3ccccc32)CC1)Nc1ccc2c(c1)CCC2` as the compound, how does the CC50 [9] read?
**A.** Its CC50 is 49.5 µM (active).

**Q.** With `COC(=O)c1cn(CCOc2ccccc2)c2ccccc12` as the compound, how does the EC50 [3] read?
**A.** Its EC50 is 6.67 µM (active).

**Q.** What about the EC50 [4] of the same compound?
**A.** The EC50 was 10.2 µM (active).

**Q.** What about the EC50 (H4) of the same compound?
**A.** The EC50 was 12.9 µM (active).

**Q.** Which EC50 [5] does the source give for `O=C(O)c1cnc(-c2ccccc2)nc1Sc1ccc(Cl)cc1Cl` here?
**A.** Its EC50 is 57.8 µM (active).

**Q.** What about the EC50 [10] of the same compound?
**A.** The EC50 was 15.4 µM (active).

**Q.** And the EC50 (Streptokinase A)?
**A.** Its EC50 is 18.8 µM (active).

**Q.** And the EC50 [6]?
**A.** Its EC50 is 0.13 µM (active).

**Q.** What about the EC50 (Streptococcus) of the same compound?
**A.** Its EC50 is > 150 µM (not active).

**Q.** And the IC50 [11]?
**A.** Its IC50 is 1.85 µM (active).

**Q.** And the EC50 [12]?
**A.** Its EC50 is > 53 µM (inactive).
